Data from patent US20050267020A1, “Polypeptides derived from inducible hsp70 and pharmaceutical compositions containing the same” (priority 2001, published 2005).

Columns and labels:
[1] = target: T1, HLA-A*0201 (Homo sapiens, UniProt P04439, D140Y/D185E/D98H/E176V/E277Q/G131W/G231S/I119V/I121R/I166T/I218V/L300P/L318F/N151K/N90K/P208A/P217A/Q86G/Q94H/R138H/R169H/T345S); assay: Measurement of peptide relative affinity to HLA-A*0201 on T2 cells; type: binding; details: HLA-A*0201, T2 cells; ratio to reference peptide HIVpol 589; the lower the RA-value, the stronger the binding
T1 construct: Tap−/− cells expressing the studied HLA-class I molecule; endogenous in cells; host or cells: T2 cells (Tap-/-, HLA-A*0201)
Protocol: Measurement of Peptide Relative Affinity to HLA class I. Tap−/− cells expressing the studied HLA-class I molecule (3×10^5 cells/mL) were incubated with various concentrations of peptides ranging from 100 μM to 0.1 μM in serum-free RPMI 1640 medium supplemented with 100 ng/ml of human β-2m at 37° C. for 16 hours. Cells were then washed twice and stained with the specific anti-class I mAb followed by FITC conjugated goat anti mouse Ig mAb to quantify the expression of HLA-A*0201. For each peptide concentration, the HLA-specific staining was calculated as the % of the staining obtained with 100 μM of the reference peptide. The relative affinity (RA) is determined as: RA=(Concentration of each peptide that induces 20% of HLA expression/Concentration of the reference peptide that induces 20% of HLA expression). The lower the RA-value, the stronger is the peptide binding to HLA. The mean RA value for each peptide is determined from at least three independent experiments. […]
(§1) The affinity of each peptide was assayed experimentally by determination of the Relative Affinity: the necessary peptide dose to stabilise a reference quantity of HLA-A*0201 molecules at the surface of T2 cells; and the stability of each peptide was assayed by determination of the half-life of the peptide/HLA-A*0201 molecule complex (DC50: dissociation complex 50).

[2] = test system: HHD mice; assay: Vaccination of HHD mice, ex vivo IFN-γ ELISPOT assay; type: in vivo, mouse
Text: Immune responses were monitored ex vivo in an IFN-γ Elispot assay. The X axis represents the percentage of immunized mice responding to the different epitopes.
The 8 graphs represent the immune responses obtained for each of the immunized mice with the 22-mer epitope. The X axis represents the number of IFN-γ producing CTLs for 10^5 ex vivo CD8+ cells upon activation. On the Y axis, the bars represent the respective level of IFN-γ producing CTLs against p391 or p393 peptide or against irrelevant HIV pol589 peptides.
Generation of CTL in HLA-transgenic mice. HLA-transgenic mice were injected subcutaneously at the base of the tail with 100 μg of peptide emulsified in incomplete Freund's adjuvant (IFA) in the presence of 140 μg of the I-A^b restricted HBVcore-derived T-helper epitope (128-140; sequence TPPAYRPPNAPIL). After 11 days, spleen cells (5×10^7 cells in 10 mL) were stimulated in vitro with peptide (10 μM). […]
ELISPOT Assay. The ELISPOT assay was used to quantify peptide epitope-specific, IFN-γ-releasing effector cells. […] The spots were counted using an automated image analysis system ELISPOT Reader (A/D Strassberg, Germany). The peptide-specific IFN-γ secreting cells frequency could be calculated from the numbers of spot-forming cells and from the CD8+ frequency in the studied lymphocyte population, adressed by immunostaining with an anti-CD8 mAb (clone 3B5; Caltag Laboratories, CA).

[3] = test system: human CD8+ cells; assay: Generation of CTL from human PBMC with peptide- or polyepitope-pulsed dendritic cells, intracellular IFN-γ staining; type: cell-based; details: human PBMC; multiple restimulations of CD8+ cells; T2 cells loaded with p380, p391 or p393
Protocol: The three graphs entitled hCTL380, hCTL391 and hCTL393 represent respectively the testing of p380, p391 and p393-specific human CTLs. P391 and p393 specific CTLs were tested towards EBV-B cells, whereas p380 specific CTLs were tested towards T2 cells. The number of IFN-γ producing CD8+ cells for 10^5 CD8+ cells upon activation, indicated on the X-axis, was measured, as assessed by staining cells for CD8 and intracellular IFN-γ.
Polyepitope induced human CTL were tested for their capacity to respond to T2 cells loaded with p380, p391 or p393 or the irrelevant HIVpol589 peptides in intracellular IFN-γ staining. The X axis represents the number of IFNγ-producing CTL/10^5 CD8+ cells. On the Y axis, upper to lower bars represent the results obtained when cells were loaded respectively with irrelevant HIV pol589 peptides, or with p380, p391 or p393 peptides.
Generation of CTL from Human Peripheral Blood Mononuclear Cells (PBMC). Fresh PBMC collected from healthy donnors under informed consent were serologically typed for the studied HLA-class I molecule, and purified using standard Ficoll-Paque (Amersham Pharmacia Biotech AB). Dendritic cells (DC) were prepared by cultivating plastic adherent PBMC in the presence of 500 U/mL GM-CSF (R&D Systems Inc. MN) and 500 U/mL IL-4 (R&D Systems Inc. MN) for 7 days such as described in Keogh et al. (30).
DC were then maturated for 2 days with 2 μg/mL anti-CD40 antibody and 100 ng/mL Poly I:C (Sigma-Aldrich). […] Autologous CD8+ purified T-cells (CD8 MicroBeads, Miltneyi Biotec Inc. CA) were stimulated weekly with DC pulsed for two hours with peptide (10 μM) and irradiated at 35Gy at a T:DC ratio of 10:1 in culture medium (CM; RPMI 1640 supplemented with 10% human AB serum, […] L-glutamine and gentamycin). 1×10^3 U/mL IL-6 and SU/mL IL-12 (R&D Systems Inc. MN) were added during the first week of culture. 20 U/mL clinical grade IL-2 (Proleukin, Chiron Corp.) and 10 ng/mL IL-7 (R&D Systems Inc. MN) were added during the next two weeks of culture. 7 days after the last stimulation with DC, peptide specific IFN-γ secreting CD8+ T cells were magnetically sorted following encounter of the peptide presented by HLA-A*0201+ B-EBV cells (IFN-γ Secretion Assay, Miltenyi Biotec Inc. CA). The characterization of peptide-specific T cells was tested 7 days after the purification step.
Intracellular IFN-g Staining. 5×10^4 T cells were incubated with 10^5 stimulating peptide loaded EBV-B cells or with 10^5 tumor cells in the presence of 20 μg/ml brefeldin-A (Sigma, Oakville, Canada). Six hours later, they were washed, stained with r-phycoerythrin-conjugated anti-CD8 antibody (Caltag Laboratories, Burlingame, Calif.) in PBS for 25 min at 4° C., washed and fixed with 4% PFA. Then, cells were permeabilized with PBS 0.5% BSA 0.2% saponin (Sigma, Oakville, Canada), and stained with allophycocyanin-conjugated anti-IFNg mAb (PharMingen, Mississauga, Canada) for 25 min at 4° C. Cells were analyzed on FACSCalibur (Becton Dickinson, Mountain View, Calif.).

[4] = target: T2, HLA-A*0201/peptide complex (Homo sapiens, UniProt P04439, D140Y/D185E/D98H/E176V/E277Q/G131W/G231S/I119V/I121R/I166T/I218V/L300P/L318F/N151K/N90K/P208A/P217A/Q86G/Q94H/R138H/R169H/T345S); assay: Assessment of peptide/HLA class I complex stability (DC50); type: binding; details: half life (DC50) of the HLA-A*0201/peptide complex
T2 construct: Tap−/− cells expressing the studied HLA-class I molecule; endogenous in cells; host or cells: T2 cells (Tap-/-, HLA-A*0201)
Protocol: Assessment of Peptide/HLA class I Complex Stability. Tap−/− cells (10^6/mL) were incubated overnight with 100 μM of each peptide in serum-free RPMI 1640 medium supplemented with 100 ng/mL of […] at 37° C. Cells were then washed four times to remove free peptide, incubated with Brefeldin A (10 μg/mL) for 1 hour to block cell surface expression of newly synthesized HLA molecules, washed and incubated at 37° C. for 0, 2, 4 or 6 hours. Subsequently, cells were stained with the HLA specific mAb followed by FITC conjugated goat anti mouse Ig mAb. For each time point, peptide induced HLA expression was calculated as: Mean fluorescence of peptide preincubated cells—Mean fluorescence of cells treated in similar conditions in the absence of peptide. DC50 (dissociation complex; DC) was defined as the time required for the loss of 50% of the HLA-A*0201/peptide complexes stabilized at t=0.
as §1

LIGRKFGDPV [HSP 73]
Relative affinity [1]: >20

LMGDKSENVQDLLLLDVAPLSL [22-mer polyepitope]
mice responding after vaccination [2]: induced responses in most mice
epitopes against which immune responses were raised after vaccination ([2]; HSP380, HSP391, HSP393 epitopes): induced immune responses against all three Hsp70 epitopes
specificity of human CTL lines induced with pulsed dendritic cells [3]: showed specificity towards all three Hsp70 epitopes

SLFEGIDFYT [HSP 286]
Stability (hrs) [4]: >6 h hrs
